IC50 data for 28 compounds are collected here from US20220089592A1, “IMIDAZO[1,2-A]PYRIDINYL DERIVATIVES AS IRAK4 INHIBITORS” (priority 2019, published 2022).

Structures are written as SMILES. Structures can show the parent of a compound that is named as a salt.

The assay addresses T1, IRAK4 (Homo sapiens, UniProt Q9NWZ3).
T1 sequence (Q9NWZ3 1-460): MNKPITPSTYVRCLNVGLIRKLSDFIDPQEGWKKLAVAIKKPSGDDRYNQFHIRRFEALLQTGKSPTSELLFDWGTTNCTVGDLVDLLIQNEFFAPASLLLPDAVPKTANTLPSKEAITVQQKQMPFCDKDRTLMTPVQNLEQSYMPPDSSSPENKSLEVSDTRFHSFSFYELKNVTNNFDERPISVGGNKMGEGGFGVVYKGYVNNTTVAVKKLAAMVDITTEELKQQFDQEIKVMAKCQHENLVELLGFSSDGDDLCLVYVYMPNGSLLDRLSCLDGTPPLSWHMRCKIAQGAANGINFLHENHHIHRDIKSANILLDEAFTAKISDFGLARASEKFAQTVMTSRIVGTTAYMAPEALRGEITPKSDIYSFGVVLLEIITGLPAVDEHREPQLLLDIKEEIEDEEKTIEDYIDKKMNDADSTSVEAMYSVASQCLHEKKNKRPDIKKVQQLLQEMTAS
As to the kind of experiment: 2-hour 1 mM ATP IRAK4 Biochemical assay (as above, but with 100 pM IRAK4 and 1 mM ATP). The conditions noted are these: IRAK4 MSD BIOCHEMICAL (1 mM ATP) IC50 (μM), 100 pM IRAK4, 2 hours. A digest of the protocol:
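Run with 100 pM IRAK4 and 1 mM ATP for 2 hours, quenched with EDTA pH 8. Phosphorylated biotinylated peptide captured on streptavidin MSD plates and detected with anti-phosphothreonine antibody plus Sulfo-Tag secondary by electrochemiluminescence.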
Take `Cc1nc(C(=O)Nc2cn3cc(C45CCC(C)(C4)OC5)nc3c(OC3CCC3)n2)co1` (stereo not shown) [Example 486, N-(8-cyclobutoxy-2-(1-methyl-2-oxabicyclo[2.2.1]heptan-4-yl)imidazo[1,2-a]pyrazin-6-yl)-2-methyloxazole-4-carboxamide 2,2,2-trifluoroacetate]: the half-inhibitory concentration (IC50) amounted to 0.016 µM.

The compound `CC(C)Oc1nc2nc(C3CCOCC3)cn2cc1NC(=O)c1cccc2c1OCC2(F)F` [Example 487, 3,3-difluoro-N-(7-isopropoxy-2-(tetrahydro-2H-pyran-4-yl)imidazo[1,2-a]pyrimidin-6-yl)-2,3-dihydrobenzofuran-7-carboxamide] came in with an IC50 of 0.001 µM. As to `COc1ccccc1C(=O)Nc1cn2cc(C34COC(C)(C3)C4)nc2nc1OC(C)C` [Example 488, N-(7-isopropoxy-2-(1-methyl-2-oxabicyclo[2.1.1]hexan-4-yl)imidazo[1,2-a]pyrimidin-6-yl)-2-methoxybenzamide], the IC50 was 0.002 µM. In the case of `COc1c(F)cccc1C(=O)Nc1cn2cc(C34COC(C)(C3)C4)nc2nc1OC(C)C` [Example 489, 3-fluoro-N-(7-isopropoxy-2-(1-methyl-2-oxabicyclo[2.1.1]hexan-4-yl)imidazo[1,2-a]pyrimidin-6-yl)-2-methoxybenzamide 2,2,2-trifluoroacetate], the IC50 came out at 0.003 µM. In turn, `Cc1cccc(C(=O)Nc2cn3cc(C45COC(C)(C4)C5)nc3nc2OC(C)C)c1F` [Example 490, 2-fluoro-N-(7-isopropoxy-2-(1-methyl-2-oxabicyclo[2.1.1]hexan-4-yl)imidazo[1,2-a]pyrimidin-6-yl)-3-methylbenzamide] came in with an IC50 of 0.001 µM.

`CC(C)Oc1nc2nc(C34COC(C)(C3)C4)cn2cc1NC(=O)c1cccc(C2CCOC2)n1` (stereo not shown) [Example 493, N-(7-isopropoxy-2-(1-methyl-2-oxabicyclo[2.1.1]hexan-4-yl)imidazo[1,2-a]pyrimidin-6-yl)-6-(tetrahydrofuran-3-yl)picolinamide] displayed an IC50 of 0.001 µM.

Take `CC(C)Oc1nc2nc(C34COC(C)(C3)C4)cn2cc1NC(=O)c1cccc(OC2CC2)n1` [Example 494, 6-cyclopropoxy-N-(7-isopropoxy-2-(1-methyl-2-oxabicyclo[2.1.1]hexan-4-yl)imidazo[1,2-a]pyrimidin-6-yl)picolinamide]: the 50% inhibitory concentration (IC50) amounted to 0.006 µM.

Consider `CC(C)Oc1nc2nc(C34COC(C)(C3)C4)cn2cc1NC(=O)c1ccnc2ccnn12` [Example 495, N-(7-isopropoxy-2-(1-methyl-2-oxabicyclo[2.1.1]hexan-4-yl)imidazo[1,2-a]pyrimidin-6-yl)pyrazolo[1,5-a]pyrimidine-7-carboxamide], for which the IC50 was 0.007 µM.

As to `CC(C)Oc1nc2nc(C34COC(C)(C3)C4)cn2cc1NC(=O)c1cccn(C(F)F)c1=O` [Example 496, 1-(difluoromethyl)-N-(7-isopropoxy-2-(1-methyl-2-oxabicyclo[2.1.1]hexan-4-yl)imidazo[1,2-a]pyrimidin-6-yl)-2-oxo-1,2-dihydropyridine-3-carboxamide 2,2,2-trifluoroacetate], inhibition was half-maximal at 0.001 µM (IC50). In the case of `CC(C)Oc1nc2nc(C34COC(C)(C3)C4)cn2cc1NC(=O)c1ccn(C)n1` [Example 497, N-(7-isopropoxy-2-(1-methyl-2-oxabicyclo[2.1.1]hexan-4-yl)imidazo[1,2-a]pyrimidin-6-yl)-1-methyl-1H-pyrazole-3-carboxamide] it was 0.006 µM. Then `CC(C)Oc1nc2nc(C34COC(C)(C3)C4)cn2cc1NC(=O)c1ccn(C(F)F)n1` [Example 498, 1-(difluoromethyl)-N-(7-isopropoxy-2-(1-methyl-2-oxabicyclo[2.1.1]hexan-4-yl)imidazo[1,2-a]pyrimidin-6-yl)-1H-pyrazole-3-carboxamide], with 0.001 µM; and `CC(C)Oc1nc2nc(C34COC(C)(C3)C4)cn2cc1NC(=O)c1csc(C(F)(F)F)n1` [Example 499, N-(7-isopropoxy-2-(1-methyl-2-oxabicyclo[2.1.1]hexan-4-yl)imidazo[1,2-a]pyrimidin-6-yl)-2-(trifluoromethyl)thiazole-4-carboxamide], with 0.001 µM; and `CC(C)Oc1nc2nc(C3C4COCC43)cn2cc1NC(=O)c1ccn(C)n1` (stereo not shown) [Example 500, N-(2-(3-oxabicyclo[3.1.0]hexan-6-yl)-7-isopropoxyimidazo[1,2-a]pyrimidin-6-yl)-1-methyl-1H-pyrazole-3-carboxamide Hydrochloride], with 0.005 µM. Consider `CC(C)Oc1nc2nc(C3C4COCC43)cn2cc1NC(=O)c1ccn(C(C)C)n1` (stereo not shown) [Example 501, N-(2-(3-oxabicyclo[3.1.0]hexan-6-yl)-7-isopropoxyimidazo[1,2-a]pyrimidin-6-yl)-1-isopropyl-1H-pyrazole-3-carboxamide hydrochloride], for which the 50% inhibitory concentration (IC50) turned out to be 0.002 µM. Then `CC(C)Oc1nc2nc(C3C4COCC43)cn2cc1NC(=O)c1ccn(CC(F)F)n1` (stereo not shown) [Example 503, N-(2-(3-oxabicyclo[3.1.0]hexan-6-yl)-7-isopropoxyimidazo[1,2-a]pyrimidin-6-yl)-1-(2,2-difluoroethyl)-1H-pyrazole-3-carboxamide], with 0.002 µM. For `CC(C)Oc1nc2nc(C3C4COCC43)cn2cc1NC(=O)c1coc(C(C)C)n1` (stereo not shown) [Example 504, N-(2-(3-oxabicyclo[3.1.0]hexan-6-yl)-7-isopropoxyimidazo[1,2-a]pyrimidin-6-yl)-2-isopropyloxazole-4-carboxamide], the IC50 is 0.002 µM.

As for `COc1ncccc1C(=O)Nc1cn2cc(C34COC(C)(C3)C4)nc2nc1OC1CC1` [Example 505, N-(7-cyclopropoxy-2-(1-methyl-2-oxabicyclo[2.1.1]hexan-4-yl)imidazo[1,2-a]pyrimidin-6-yl)-2-methoxynicotinamide 2,2,2-trifluoroacetate], half-maximal inhibition (IC50) was put at 0.007 µM. In the case of `COc1cc2nc(C34COC(C)(C3)C4)cn2cc1NC(=O)c1cccc(C(F)F)n1` [Example 515, 6-(difluoromethyl)-N-(7-methoxy-2-(1-methyl-2-oxabicyclo[2.1.1]hexan-4-yl)imidazo[1,2-a]pyridin-6-yl)picolinamide 2,2,2-trifluoroacetate] it was 0.001 µM; in that of `CCOc1cc2nc(C34COCC3C4)cn2cc1NC(=O)c1cccc(C(F)F)n1` (stereo not shown) [Example 518, N-(2-(3-oxabicyclo[3.1.0]hexan-1-yl)-7-ethoxyimidazo[1,2-a]pyridin-6-yl)-6-(difluoromethyl)picolinamide], 0.001 µM; in that of `CC(C)Oc1cc2nc(-c3ccnn3C)cn2cc1NC(=O)c1cccc(C(F)F)n1` [Example 525, 6-(difluoromethyl)-N-(7-isopropoxy-2-(1-methyl-1H-pyrazol-5-yl)imidazo[1,2-a]pyridin-6-yl)picolinamide], 0.002 µM. Turning to `CC(C)Oc1cc2nc(C3CC3)cn2cc1NC(=O)c1cccc(C(F)F)n1` [Example 526, N-(2-cyclopropyl-7-isopropoxyimidazo[1,2-a]pyridin-6-yl)-6-(difluoromethyl)picolinamide], 0.001 µM corresponded to half-maximal inhibition (IC50).

Compound `COCC(C)(C)c1cn2cc(NC(=O)c3cccc(C(F)F)n3)c(OC(C)C)cc2n1` [Example 527, 6-(difluoromethyl)-N-(7-isopropoxy-2-(1-methoxy-2-methylpropan-2-yl)imidazo[1,2-a]pyridin-6-yl)picolinamide] returned an IC50 of 0.003 µM.

On to `CC(C)Oc1cc2nc(C3CC3)cn2cc1NC(=O)c1ccn(C(F)F)n1` [Example 528, N-(2-cyclopropyl-7-isopropoxyimidazo[1,2-a]pyridin-6-yl)-1-(difluoromethyl)-1H-pyrazole-3-carboxamide], for which the midpoint of inhibition, the IC50, lay at 0.004 µM. Regarding `Cc1nc(C(=O)Nc2cn3cc(C45COC(C)(C4)C5)nc3cc2OC(C)C)co1` [Example 529, N-(7-isopropoxy-2-(1-methyl-2-oxabicyclo[2.1.1]hexan-4-yl)imidazo[1,2-a]pyridin-6-yl)-2-methyloxazole-4-carboxamide], the IC50 is 0.001 µM. In the case of `CC(C)Oc1cc2nc(C3CCOC3)cn2cc1NC(=O)c1cccc(C(F)F)n1` (stereo not shown) [Example 530, 6-(difluoromethyl)-N-(7-isopropoxy-2-(tetrahydrofuran-3-yl)imidazo[1,2-a]pyridin-6-yl)picolinamide 2,2,2-trifluoroacetate] it was 0.045 µM. Compound `COc1cc(NC(=O)c2cccc(C(F)F)n2)cn2cc(C34CC(F)(C3)C4)nc12` [Example 535, 6-(difluoromethyl)-N-(2-(3-fluorobicyclo[1.1.1]pentan-1-yl)-8-methoxyimidazo[1,2-a]pyridin-6-yl)picolinamide] returned an IC50 of 0.05 µM.

Compound `CC(C)Oc1cc2nc(-c3cccc(F)c3)cn2cc1NC(=O)c1cccc(C(F)F)n1` [Example 538, 6-(difluoromethyl)-N-(2-(3-fluorophenyl)-7-isopropoxyimidazo[1,2-a]pyridin-6-yl)picolinamide 2,2,2-trifluoroacetate] registered an IC50 of 0.003 µM. As for `CC(C)Oc1cc2nc(C34CC(F)(C3)C4)cn2cc1NC(=O)c1cccc(C(F)(F)F)n1` [Example 539, N-(2-(3-fluorobicyclo[1.1.1]pentan-1-yl)-7-isopropoxyimidazo[1,2-a]pyridin-6-yl)-6-(trifluoromethyl)picolinamide 2,2,2-trifluoroacetate], the half-maximal inhibitory concentration (IC50) was found to be 0.002 µM.

What is called IC50 is the point on the concentration scale where inhibition reaches its midpoint. Low readings indicate greater potency in that assay, high ones weaker potency in that assay.
